From the C3SDB collision cross section collection come the findings set out here.

For data set [1] the following is noted: instrument: DT, stepped-field.
For data set [2] the following is noted: instrument: DT, single field, calibrated with Agilent tune mix (Agilent).
The conditions of data set [3]: instrument: DT, stepped-field. This is another data set of the same source.

Molecules are shown by their SMILES.

As for `C[C@]12CCC(=O)C=C1CC[C@@H]1[C@@H]2[C@@H](O)C[C@]2(C=O)[C@@H](C(=O)CO)CC[C@@H]12` [Aldosterone], the “collision cross section (N2)” value in data set [1] ([M+H]+) was found to be 196.05 Å²; in data set [1] ([M+Na]+) it was 204.09 Å²; in data set [2] ([M+H]+) it was 187.7 Å²; in data set [2] ([M-H]-) it was 181.09 Å².

For the compound `C[N+](C)(C)CC(=O)[O-]` [Betaine], the results for the “collision cross section (N2)” value in data set [1] ([M+H]+), in data set [1] ([M+Na]+) and in data set [2] ([M+H]+) were 121.6 Å², 135.56 Å² and 121.4 Å², respectively.

Turning to `C=CC1=C(C)C(/C=c2\[nH]/c(=C\c3[nH]c(/C=C4\NC(=O)C(C)=C4C=C)c(C)c3CCC(=O)O)c(CCC(=O)O)c2C)=NC1=O` [Biliverdin], the “collision cross section (N2)” value in data set [1] ([M+H]+) is on record as 246.5 Å²; in data set [1] ([M+Na]+) it was 248.83 Å²; in data set [2] ([M+Na]+) it was 246.7 Å²; in data set [2] ([M-H]-) it was 242.04 Å².

With `CCCCCCCCCCCCC=CC[C@@H](O)[C@H](CO)NC(=O)CCCCCCCCCCCCCCCCCCC` [Cer(38:01)], in data set [3] ([M+H-H2O]+), the “collision cross section (N2)” value amounted to 263.93 Å².

Take `CCCCCCCCCCCCC=CC[C@@H](O)[C@H](CO)NC(=O)CCCCCCCCCCCCCCCCCCCCC` [Cer(40:01)]: the “collision cross section (N2)” value in data set [3] ([M+H-H2O]+) was 269.41 Å².

As for `CCCCCCCCCCCCC=CC[C@@H](O)[C@H](CO)NC(=O)CCCCCCCCCCCCCCCCCCCCCC` [Cer(41:01)], the “collision cross section (N2)” value in data set [3] ([M+H-H2O]+) came to 272.16 Å².

Take `CCCCCCCCCCCCC=CC[C@@H](O)[C@H](CO)NC(=O)CCCCCCCCCCCCCCCCCCCCCCC` [Cer(42:01)]: the “collision cross section (N2)” value in data set [3] ([M+H-2H2O]+) is recorded as 273.88 Å²; in data set [3] ([M+H-H2O]+) it was 275.06 Å²; in data set [3] ([M+H]+) it was 277.56 Å².

Turning to `CCCCCCCCCCCCC=CC[C@@H](O)[C@H](CO)NC(=O)CC=CCCCCCCCCCCCCCCCCCCCC` [Cer(42:02)], the figures for the “collision cross section (N2)” value in data set [3] ([M+H-2H2O]+), in data set [3] ([M+H-H2O]+) and in data set [3] ([M+H]+) were 271.35 Å², 273.26 Å² and 276.77 Å², respectively.

`CCCCCCCCCCCCC=CC[C@@H](O)[C@H](CO)NC(=O)CC=CCC=CCCCCCCCCCCCCCCCCC` [Cer(42:03)]: the results for the “collision cross section (N2)” value in data set [3] ([M+H-H2O]+) and in data set [3] ([M+H]+) were 271.44 Å² and 275.18 Å², respectively.

Regarding `O=C(O)CCCC[C@@H]1SC[C@@H]2NC(=O)N[C@@H]21` [D-Biotin], the “collision cross section (N2)” value in data set [1] ([M+H]+) came out at 154.16 Å²; in data set [1] ([M+Na]+), 164.45 Å²; in data set [2] ([M+H]+) it was 150.4 Å²; in data set [2] ([M-H]-), 152.96 Å².

Consider `OC[C@H]1O[C@H](O[C@H]2[C@H](O)[C@@H](O)[C@H](O)O[C@@H]2CO)[C@H](O)[C@@H](O)[C@@H]1O` [D-Maltose], for which the “collision cross section (N2)” value in data set [1] ([M+Na]+) is recorded as 179.19 Å²; in data set [2] ([M+K-2H]-) it was 175.19 Å²; in data set [2] ([M+Na]+), 178.1 Å².

Regarding `OC[C@H]1OC(O)[C@@H](O)[C@@H](O)[C@@H]1O` (stereo partly drawn) [D-Mannose], the entries for the “collision cross section (N2)” value in data set [1] ([M+Na]+) and in data set [2] ([M+Na]+) were 141.82 Å² and 140.8 Å², respectively.

Take `NCCc1ccc(O)c(O)c1` [Dopamine]: the “collision cross section (N2)” value in data set [1] ([M+H]+) was determined as 125.24 Å²; in data set [2] ([M-H]-), 129.51 Å².

With `CCCCCCCCCCCCCCCC(=O)N[C@@H](CO[C@@H]1O[C@H](CO)[C@@H](O)C(O)C1O)[C@H](O)CCCCCCCCCCCCCCC` (some centres not stated) [GlcCer(34:00)], the “collision cross section (N2)” value in data set [3] ([M+Na]+) came to 280.92 Å².

On to `CCCCCCCCCCCCC=CC[C@@H](O)[C@H](CO[C@@H]1O[C@H](CO)[C@@H](O)C(O)C1O)NC(=O)CCCCCCCCCCCCCCCCC` (some centres not stated) [GlcCer(36:01)], for which the “collision cross section (N2)” value is 284.18 Å² in data set [3] ([M+Cl]-); 279.86 Å² in data set [3] ([M+H-H2O]+); 287.29 Å² in data set [3] ([M+HCOO]-); 282.43 Å² in data set [3] ([M+H]+); 284 Å² in data set [3] ([M+Na]+).

For the compound `CCCCCCCCCCCCC=CC[C@@H](O)[C@H](CO[C@@H]1O[C@H](CO)[C@@H](O)C(O)C1O)NC(=O)CCCCCCCCCCCCCCCCCC` (some centres not stated) [GlcCer(37:01)], the “collision cross section (N2)” value in data set [3] ([M+Na]+) turned out to be 287.43 Å².

`CCCCCCCCCCCCCCCCCCCC(=O)N[C@@H](CO[C@@H]1O[C@H](CO)[C@@H](O)C(O)C1O)[C@H](O)CCCCCCCCCCCCCCC` (some centres not stated) [GlcCer(38:00)]: the “collision cross section (N2)” value is given as 290.18 Å² in data set [3] ([M+H]+) and 291.27 Å² in data set [3] ([M+Na]+).

As for `CCCCCCCCCCCCC=CC[C@@H](O)[C@H](CO[C@@H]1O[C@H](CO)[C@@H](O)C(O)C1O)NC(=O)CCCCCCCCCCCCCCCCCCC` (some centres not stated) [GlcCer(38:01)], the “collision cross section (N2)” value turned out to be 286.62 Å² in data set [3] ([M+H-H2O]+), 288.15 Å² in data set [3] ([M+H]+) and 290.52 Å² in data set [3] ([M+Na]+).

With `CCCCCCCCCCCCC=CC[C@@H](O)[C@H](CO[C@@H]1O[C@H](CO)[C@@H](O)C(O)C1O)NC(=O)CCCCCCCCCCCCCCCCCCCCC` (some centres not stated) [GlcCer(40:01)], the “collision cross section (N2)” value in data set [3] ([M+Cl]-) stood at 292.56 Å²; in data set [3] ([M+H-H2O]+) it was 292.77 Å²; in data set [3] ([M+HCOO]-), 298.16 Å²; in data set [3] ([M+H]+) it was 293.87 Å²; in data set [3] ([M+Na]+), 296.15 Å².

Turning to `CCCCCCCCCCCCC=CC[C@@H](O)[C@H](CO[C@@H]1O[C@H](CO)[C@@H](O)C(O)C1O)NC(=O)CC=CCCCCCCCCCCCCCCCCCC` (some centres not stated) [GlcCer(40:02)], the “collision cross section (N2)” value in data set [3] ([M+H-H2O]+) amounted to 290.36 Å²; in data set [3] ([M+H]+), 293.98 Å²; in data set [3] ([M+Na]+) it was 292.09 Å².

For the compound `CCCCCCCCCCCCC=CC[C@@H](O)[C@H](CO[C@@H]1O[C@H](CO)[C@@H](O)C(O)C1O)NC(=O)CCCCCCCCCCCCCCCCCCCCCC` (some centres not stated) [GlcCer(41:01)], the “collision cross section (N2)” value is recorded as 294.63 Å² in data set [3] ([M+H-H2O]+), 297.12 Å² in data set [3] ([M+H]+) and 297.42 Å² in data set [3] ([M+Na]+).

As to `CCCCCCCCCCCCC=CC[C@@H](O)[C@H](CO[C@@H]1O[C@H](CO)[C@@H](O)C(O)C1O)NC(=O)CCCCCCCCCCCCCCCCCCCCCCC` (some centres not stated) [GlcCer(42:01)], the “collision cross section (N2)” value stood at 298.88 Å² in data set [3] ([M+Cl]-); 298.36 Å² in data set [3] ([M+H-H2O]+); 302.85 Å² in data set [3] ([M+HCOO]-); 300.59 Å² in data set [3] ([M+H]+); 301.76 Å² in data set [3] ([M+Na]+).

In the case of `CCCCCCCCCCCCC=CC[C@@H](O)[C@H](CO[C@@H]1O[C@H](CO)[C@@H](O)C(O)C1O)NC(=O)CC=CCCCCCCCCCCCCCCCCCCCCC` (some centres not stated) [GlcCer(43:02)], the entries for the “collision cross section (N2)” value in data set [3] ([M+H]+) and in data set [3] ([M+Na]+) were 302.04 Å² and 302.4 Å², respectively.

Regarding `CCCCCCCCCCCCC=CC[C@@H](O)[C@H](CO[C@@H]1O[C@H](CO)[C@@H](O)C(O)C1O)NC(=O)CCCCCCCCCCCCCCCCCCCCCCCCC` (some centres not stated) [GlcCer(44:01)], the “collision cross section (N2)” value is recorded as 306.44 Å² in data set [3] ([M+H]+) and 307.93 Å² in data set [3] ([M+Na]+).

In the case of `CCCCCCCCCCCCC=CC[C@@H](O)[C@H](CO[C@@H]1O[C@H](CO)[C@@H](O)C(O)C1O)NC(=O)CC=CCCCCCCCCCCCCCCCCCCCCCC` (some centres not stated) [GlcCer(44:02)], the figures for the “collision cross section (N2)” value in data set [3] ([M+H-H2O]+), in data set [3] ([M+H]+) and in data set [3] ([M+Na]+) were 301.46 Å², 305.11 Å² and 306.31 Å², respectively.

Regarding `OC[C@H]1O[C@H](OC[C@H]2OC(O)[C@H](O)[C@@H](O)[C@@H]2O)[C@H](O)[C@@H](O)[C@H]1O` (some centres not stated) [Melibiose], the “collision cross section (N2)” value in data set [1] ([M+Na]+) is 181.14 Å²; in data set [2] ([M+Na]+) it was 176.8 Å².

As for `CC(=O)N[C@H]1C(O)O[C@H](CO)[C@@H](O)[C@@H]1O` (stereo partly drawn) [N-Acetyl-D-glucosamine], the “collision cross section (N2)” value in data set [1] ([M+Na]+) is on record as 160.36 Å²; in data set [2] ([M+H]+) it was 147.3 Å².

On to `CC(=O)N[C@@H](CCC(=O)O)C(=O)O` [N-Acetyl-L-glutamate], for which the “collision cross section (N2)” value is recorded as 139.03 Å² in data set [1] ([M+H]+), 149.63 Å² in data set [1] ([M+Na]+) and 141 Å² in data set [2] ([M+Na-2H]-).

As to `NC(=O)c1cccnc1` [Nicotinamide], the entries for the “collision cross section (N2)” value in data set [1] ([M+H]+), in data set [1] ([M+Na]+) and in data set [2] ([M+H]+) were 129.32 Å², 137.3 Å² and 125.3 Å², respectively.

Consider `CN(CC(=O)O)/C(N)=N/P(=O)(O)O` [Phosphocreatine], for which the “collision cross section (N2)” value is reported as 153.77 Å² in data set [1] ([M+H]+) and 144.4 Å² in data set [2] ([M+H]+).

As to `CC(=O)[C@H]1CC[C@H]2[C@@H]3CCC4=CC(=O)CC[C@]4(C)[C@H]3CC[C@]12C` [Progesterone], the “collision cross section (N2)” value in data set [1] ([M+H]+) was 186.73 Å²; in data set [1] ([M+Na]+) it was 169.03 Å²; in data set [2] ([M+H]+) it was 181.2 Å²; in data set [2] ([M-H]-) it was 182.13 Å².

In the case of `CCCCC[C@H](O)/C=C/[C@@H]1[C@H]2C/C(=C/CCCC(=O)O)O[C@H]2C[C@H]1O` [Prostaglandin I2], the “collision cross section (N2)” value in data set [1] ([M+H]+) turned out to be 201.3 Å²; in data set [1] ([M+Na]+) it was 196.67 Å²; in data set [2] ([M+H]+), 198.6 Å²; in data set [2] ([M-H]-) it was 186.84 Å².

Consider `Cn1cnc2c1c(=O)[nH]c(=O)n2C` [Theobromine], for which the “collision cross section (N2)” value in data set [1] ([M+H]+) came out at 134.37 Å²; in data set [2] ([M-H]-), 135.25 Å².

For `Cn1c(=O)c2[nH]cnc2n(C)c1=O` [Theophylline], the “collision cross section (N2)” value in data set [1] ([M+H]+) is 143.06 Å²; in data set [1] ([M+Na]+) it was 149.63 Å²; in data set [2] ([M+H]+) it was 137.6 Å²; in data set [2] ([M-H]-), 130.14 Å².

For the compound `OC[C@@H](O)C(O)[C@@H](O)CO` (some centres not stated) [Xylitol], the results for the “collision cross section (N2)” value in data set [1] ([M+Na]+), in data set [2] ([M+Na]+) and in data set [2] ([M-H]-) were 140.79 Å², 135.3 Å² and 122.4 Å², respectively.
